This passage reports Activity and inhibition results from ChEMBL document CHEMBL1156964, “Bioconjugates of curcumin display improved protection against glutathione depletion mediated oxidative stress in a dopaminergic neuronal cell line: Implications for Parkinson's disease” (2010).

Structures are written as SMILES. The source made the active and inactive calls. No cut-off for these calls is given here.

Assay [1] concerns N27. Briefly: Neuroprotective effect against rat N27 cells assessed as reduction of BSO-induced reduction of GST activity at 0.5 uM treated 24 hrs after BSO withdrawal relative to control. Format: functional, cell-based.
The test system of assay [2] is N27. Kind of assay: Increase in ROS level in rat N27 cells at 0.5 uM by DCFDA fluorescence assay. In kind it is functional, cell-based.
Assay [3] is described as follows: Increase in GSH level in rat N27 cells at 0.5 uM after 24 hrs. Format: functional.
A short description of assay [4]: Neuroprotective effect against rat N27 cells assessed as reduction of BSO-induced increase in MDA level at 0.5 uM by thiobarbituric acid reaction method after 24 hrs BSO withdrawal relative to control. Also on record: scale not given: the % may be the effect or the level left. Format: functional.
For assay [5], the system named is N27. Kind of assay: Neuroprotective effect against rat N27 cells assessed as reduction of BSO-induced reduction of GST activity at 0.5 uM relative to control. In kind it is functional, cell-based.
A short description of assay [6]: Neuroprotective effect against rat N27 cells assessed as reduction of BSO-induced increase in hydrogen peroxide level at 0.5 uM after 24 hrs using FOX1 reagent. Format: functional. Also on record: scale not given: the % may be the effect or the level left.
A short description of assay [7]: Neuroprotective effect against rat N27 cells assessed as reduction of BSO-induced increase in reactive oxygen species level at 0.5 uM treated 24 hrs after BSO withdrawal by DCFDA fluorescence assay relative to control. Also on record: scale not given: the % may be the effect or the level left. In kind it is functional.
Assay [8] in a line: Neuroprotective effect against rat N27 cells assessed as reduction of BSO-induced increase in MDA level at 0.5 uM after 24 hrs by thiobarbituric acid reaction method relative to control. In kind it is functional. Also on record: scale not given: the % may be the effect or the level left.
The nature of assay [9]: Neuroprotective effect in rat N27 cells assessed as Inhibition of BSO-induced GSH depletion at 0.5 uM after 24 hrs by DTNB recycling method relative to control. Format: functional. The conditions noted are these: N27, 24 h.
A short description of assay [10]: Neuroprotective effect against rat N27 cells assessed as reduction of BSO-induced increase in reactive oxygen species level at 0.5 uM after 24 hrs by DCFDA fluorescence assay relative to control. In kind it is functional. Also on record: scale not given: the % may be the effect or the level left.
A short description of assay [11]: Neuroprotective effect against rat N27 cells assessed as reduction of BSO-induced increase in hydrogen peroxide level at 0.5 uM treated 24 hrs after BSO withdrawal using FOX1 reagent relative to control. Also on record: scale not given: the % may be the effect or the level left. In kind it is functional.

Turning to `COc1cc(/C=C/C(=O)CC(=O)/C=C/c2ccc(O)c(OC)c2)ccc1O` [CURCUMIN], the outcome in the assay on N27 [1] and in the assay with N27 [5] was Active. The result in the assay with N27 [2] was inactive. Besides, the Activity is reported as 30% in assay [3]; 65% in assay [4]; 50% in assay [6]; 50% in [7]; 40% in assay [8]; 45% in assay [10]. Also, in assay [9], the inhibition at 0.5 µM is 78%.

On to `COc1cc(/C=C/C(=O)CC(=O)/C=C/c2ccc(OC(=O)[C@@H](N)C(C)C)c(OC)c2)ccc1OC(=O)[C@@H](N)C(C)C`, for which the outcome in the assay with N27 [1] and with N27 [5] was Active. The result with N27 [2] was inactive. In addition, the Activity worked out at 50% in assay [3]; 80% in assay [4]; 80% in assay [11]; 70% in assay [7]; 30% in assay [8]; 60% in assay [10]. Also, in assay [9], the inhibition at 0.5 µM came out at 72%.

In the case of `COc1cc(/C=C/C(=O)CC(=O)/C=C/c2ccc(OC(=O)/C=C/C=C/c3ccc(O)c(O)c3)c(OC)c2)ccc1OC(=O)/C=C/C=C/c1ccc(O)c(O)c1`, the result in the assay with N27 [1] and with N27 [5] was Active. In addition, the outcome in the assay on N27 [2] was inactive. Also, the Activity in assay [3] is reported as 25%; in assay [4], 75%; in assay [6] it was 50%; in [7], 55%; in assay [8], 50%; in [10], 65%. For the same compound, the inhibition at 0.5 µM in [9] was 78%.

For the compound `COc1cc(/C=C/C(=O)CC(=O)/C=C/c2ccc(OC(=O)[C@@H](N)CCC(=O)O)c(OC)c2)ccc1OC(=O)[C@@H](N)CCC(=O)O`, the result with N27 [1] and in the assay on N27 [5] was Active. In addition, in the assay with N27 [2], the result was inactive. For the same compound, the Activity is on record as 64% in assay [3]; 90% in [4]; 50% in [6]; 80% in assay [7]; 50% in assay [8]; 90% in [10]. Moreover, in assay [9], the inhibition at 0.5 µM turned out to be 83%.

The term inhibition denotes how much of the control response was suppressed.
